These results are taken from patent US11053242B2, “[9,10-dimethoxy-3-(2-methylpropyl)-1H,2H,3H,4H,6H,7H,11BH-pyrido-[2,1-a]isoquinolin-2-yl]methanol and compounds, compositions and methods relating thereto” (Neurocrine Biosciences, Inc., priority 2015, dated 2021).

Bounds are passed on as bounds.

Test system in one data set: not listed separately
In words: In vitro human intestinal S9 hydrolysis assay (formation of compound 1-1). Conditions: human intestinal S9, 1 uM, 37° C., up to 60 minutes.
Method: Compounds (1 uM) were incubated with pooled intestinal S9 subcellular preparations (0.5 mg/mL total protein) from SD rats and humans without the addition of protease inhibitor phenylmethylsulfonylflouride. Incubations were carried out in a potassium phosphate buffer (50 mM). All concentrations were relative to the final incubation volume of 125 uL. Incubations were conducted at 37° C. for 0, 5, 10, 20, 40 and 60 minutes in a water bath and terminated by rapid mixing with 150 uL of ice-cold acetonitrile containing 1% formic acid. Internal standard was added and proteins were precipitated and removed by centrifugation prior to LC/MS analysis.
`COc1cc2c(cc1OC)[C@H]1C[C@@H](COC(=O)CC3CCN(C)C3)[C@H](CC(C)C)CN1CC2` (stereo partly drawn) [Compound 2-10, [(2R,3S,11bR)-9,10-dimethoxy-3-(2-methylpropyl)-1H,2H,3H,4H,6H,7H,11bH-pyrido[2,1-a]isoquinolin-2-yl]methyl 2-(1-methylpyrrolidin-3-yl)acetate]: the “S9 Assay (ability to form compound 1-1)” value is given as “+++”.
Take `COc1cc2c(cc1OC)[C@H]1C[C@@H](COC(=O)C3CCN(C)CC3)[C@H](CC(C)C)CN1CC2` [Compound 2-25, [(2R,3S,11bR)-9,10-dimethoxy-3-(2-methylpropyl)-1H,2H,3H,4H,6H,7H,11bH-pyrido[2,1-a]isoquinolin-2-yl]methyl 1-methylpiperidine-4-carboxylate]: the “S9 Assay (ability to form compound 1-1)” value is “+++”.
Still for that read-out and setting: as for `COc1cc2c(cc1OC)[C@H]1C[C@@H](COC(=O)N3CCNC[C@H]3C)[C@H](CC(C)C)CN1CC2` [Compound 6-3, [(2R,3S,11bR)-9,10-dimethoxy-3-(2-methylpropyl)-1H,2H,3H,4H,6H,7H,11bH-pyrido[2,1-a]isoquinolin-2-yl]methyl (2R)-2-methylpiperazine-1-carboxylate], the entry is “+”.

The target in the next data set is VMAT2 (human platelet homogenate) (Homo sapiens (Human), UniProt Q05940). The data set is described as follows: Human VMAT2 Ki, slightly modified competition binding procedure (Table 11).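 Further: competition binding with 90 min incubation at 25 °C, after which filter-retained radioligand was measured by scintillation counting.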 Conditions: 10 nM 3H-dihydrotetrabenazine.
Chain of VMAT2 (human platelet homogenate) (Q05940 whole entry): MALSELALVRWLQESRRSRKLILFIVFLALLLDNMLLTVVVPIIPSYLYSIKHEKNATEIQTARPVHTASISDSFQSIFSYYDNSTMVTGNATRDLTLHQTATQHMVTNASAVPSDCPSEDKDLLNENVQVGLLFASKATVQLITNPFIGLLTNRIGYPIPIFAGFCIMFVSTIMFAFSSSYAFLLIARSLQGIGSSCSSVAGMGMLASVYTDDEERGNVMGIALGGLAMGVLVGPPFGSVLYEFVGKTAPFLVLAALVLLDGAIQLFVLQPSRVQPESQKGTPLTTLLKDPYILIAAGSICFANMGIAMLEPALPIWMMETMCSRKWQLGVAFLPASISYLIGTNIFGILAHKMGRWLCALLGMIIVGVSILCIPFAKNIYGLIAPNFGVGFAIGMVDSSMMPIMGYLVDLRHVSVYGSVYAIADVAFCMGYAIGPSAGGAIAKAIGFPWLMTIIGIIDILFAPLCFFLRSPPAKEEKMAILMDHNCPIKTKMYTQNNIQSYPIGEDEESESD
Method: Following incubation at 25° C. for 90 minutes, bound radioligand was collected by rapid filtration onto GF/B glass fiber filters using a Unifilter-96 Harvester (PerkinElmer). Filter plates were pre-treated with 0.1% polyethylenimine and allowed to dry overnight, and following harvesting the filter plates were washed with 800 d VMAT2 binding buffer. Bound radioligand was quantified by scintillation counting using a Topcount NXT (PerkinElmer).
`COc1cc2c(cc1OC)[C@H]1C[C@@H](COC(=O)CC3CCN(C)C3)[C@H](CC(C)C)CN1CC2` (stereo partly drawn) [Compound 2-10, [(2R,3S,11bR)-9,10-dimethoxy-3-(2-methylpropyl)-1H,2H,3H,4H,6H,7H,11bH-pyrido[2,1-a]isoquinolin-2-yl]methyl 2-(1-methylpyrrolidin-3-yl)acetate] yielded a Ki of under 10 nM.
`COc1cc2c(cc1OC)[C@H]1C[C@@H](COC(=O)C3CCN(C)CC3)[C@H](CC(C)C)CN1CC2` [Compound 2-25, [(2R,3S,11bR)-9,10-dimethoxy-3-(2-methylpropyl)-1H,2H,3H,4H,6H,7H,11bH-pyrido[2,1-a]isoquinolin-2-yl]methyl 1-methylpiperidine-4-carboxylate] came in with a Ki of under 10 nM.
As for `COc1cc2c(cc1OC)[C@H]1C[C@@H](COC(=O)N3CCN(C(C)C)CC3)[C@H](CC(C)C)CN1CC2` [Compound 5-31, [(2R,3S,11bR)-9,10-dimethoxy-3-(2-methylpropyl)-1H,2H,3H,4H,6H,7H,11bH-pyrido[2,1-a]isoquinolin-2-yl]methyl 4-(propan-2-yl)piperazine-1-carboxylate], the Ki was under 10 nM.
In turn, `COc1cc2c(cc1OC)[C@H]1C[C@@H](COC(=O)N[C@@H]3CCCC[C@H]3C(=O)O)[C@H](CC(C)C)CN1CC2` [Compound 5-35, (1R,2R)-2-[({[(2R,3S,11bR)-9,10-dimethoxy-3-(2-methylpropyl)-1H,2H,3H,4H,6H,7H,11bH-pyrido[2,1-a]isoquinolin-2-yl]methoxy}carbonyl)amino]cyclohexane-1-carboxylic acid] gave a Ki of 10 to 500 nM.
Same read-out and setting: with `COc1cc2c(cc1OC)[C@H]1C[C@@H](COC(=O)N3CCO[C@H](C)C3)[C@H](CC(C)C)CN1CC2` [Compound 5-37, [(2R,3S,11bR)-9,10-dimethoxy-3-(2-methylpropyl)-1H,2H,3H,4H,6H,7H,11bH-pyrido[2,1-a]isoquinolin-2-yl]methyl (2R)-2-methylmorpholine-4-carboxylate] the figure was under 10 nM; with `COc1cc2c(cc1OC)[C@H]1C[C@@H](COC(=O)N3CCO[C@@H](C)C3)[C@H](CC(C)C)CN1CC2` [Compound 5-44, [(2R,3S,11bR)-9,10-dimethoxy-3-(2-methylpropyl)-1H,2H,3H,4H,6H,7H,11bH-pyrido[2,1-a]isoquinolin-2-yl]methyl (2S)-2-methylmorpholine-4-carboxylate], under 10 nM.
`COc1cc2c(cc1OC)[C@H]1C[C@@H](COC(=O)N[C@H](C)C(=O)O)[C@H](CC(C)C)CN1CC2` [Compound 5-45, (2R)-2-[({[(2R,3S,11bR)-9,10-dimethoxy-3-(2-methylpropyl)-1H,2H,3H,4H,6H,7H,11bH-pyrido[2,1-a]isoquinolin-2-yl]methoxy}carbonyl)amino]propanoic acid] had a Ki of over 500 nM.
Same read-out and setting: as for `COc1cc2c(cc1OC)[C@H]1C[C@@H](COC(=O)N3CCN4CCCCCC4C3)[C@H](CC(C)C)CN1CC2` (stereo partly drawn) [Compound 5-48, [(2R,3S,11bR)-9,10-dimethoxy-3-(2-methylpropyl)-1H,2H,3H,4H,6H,7H,11bH-pyrido[2,1-a]isoquinolin-2-yl]methyl decahydropiperazino[1,2-a]azepine-2-carboxylate], the figure is under 10 nM; as for `COc1cc2c(cc1OC)[C@H]1C[C@@H](COC(=O)N3CCN(C)C[C@H]3C)[C@H](CC(C)C)CN1CC2` [Compound 5-50, [(2R,3S,11bR)-9,10-dimethoxy-3-(2-methylpropyl)-1H,2H,3H,4H,6H,7H,11bH-pyrido[2,1-a]isoquinolin-2-yl]methyl (2R)-2,4-dimethylpiperazine-1-carboxylate], under 10 nM.
`COc1cc2c(cc1OC)[C@H]1C[C@@H](COC(=O)N3C[C@@H](C)O[C@@H](C)C3)[C@H](CC(C)C)CN1CC2` [Compound 5-53, [(2R,3S,11bR)-9,10-dimethoxy-3-(2-methylpropyl)-1H,2H,3H,4H,6H,7H,11bH-pyrido[2,1-a]isoquinolin-2-yl]methyl (2R,6S)-2,6-dimethylmorpholine-4-carboxylate]: the Ki was in the range of 10 to 500 nM.
Still for that read-out and setting: as for `COc1cc2c(cc1OC)[C@H]1C[C@@H](COC(=O)N3C[C@H](C)NC[C@H]3C)[C@H](CC(C)C)CN1CC2` [Compound 6-2, [(2R,3S,11bR)-9,10-dimethoxy-3-(2-methylpropyl)-1H,2H,3H,4H,6H,7H,11bH-pyrido[2,1-a]isoquinolin-2-yl]methyl (2R,5S)-2,5-dimethylpiperazine-1-carboxylate], the figure is under 10 nM; as for `COc1cc2c(cc1OC)[C@H]1C[C@@H](COC(=O)N3CCN[C@H](C#N)C3)[C@H](CC(C)C)CN1CC2` [Compound 6-9, [(2R,3S,11bR)-9,10-dimethoxy-3-(2-methylpropyl)-1H,2H,3H,4H,6H,7H,11bH-pyrido[2,1-a]isoquinolin-2-yl]methyl (3S)-3-cyanopiperazine-1-carboxylate], under 10 nM.
Still for that read-out and setting: as for `COc1cc2c(cc1OC)[C@H]1C[C@@H](COC(=O)N3CC(C)NCC3C)[C@H](CC(C)C)CN1CC2` (stereo partly drawn) [Compound 6-14, [(2R,3S,11bR)-9,10-dimethoxy-3-(2-methylpropyl)-1H,2H,3H,4H,6H,7H,11bH-pyrido[2,1-a]isoquinolin-2-yl]methyl 2,5-dimethylpiperazine-1-carboxylate], the figure is under 10 nM; as for `COc1cc2c(cc1OC)[C@H]1C[C@@H](COC(=O)OC(C)C)[C@H](CC(C)C)CN1CC2` [Compound 8-1, [(2R,3S,11bR)-9,10-dimethoxy-3-(2-methylpropyl)-1H,2H,3H,4H,6H,7H,11bH-pyrido[2,1-a]isoquinolin-2-yl]methyl propan-2-yl carbonate], 10 to 500 nM.
For the molecule `COC[C@@H]1C[C@@H]2c3cc(OC)c(OC)cc3CCN2C[C@H]1CC(C)C` [Compound 9-1, (2R,3S,11bR)-9,10-dimethoxy-2-(methoxymethyl)-3-(2-methylpropyl)-1H,2H,3H,4H,6H,7H,11bH-pyrido[2,1-a]isoquinoline], the Ki is under 10 nM.
Still for that read-out and setting: with `COc1cc2c(cc1OC)[C@H]1C[C@@H](COCC(=O)c3ccc(F)cc3)[C@H](CC(C)C)CN1CC2` [Compound 9-3, 2-{[(2R,3S,11bR)-9,l0-dimethoxy-3-(2-methylpropyl)-1H,2H,3H,4H,6H,7H,11bH-pyrido[2,1-a]isoquinolin-2-yl]methoxy}-1-(4-fluorophenyl)ethan-1-one] the figure was over 500 nM; with `COCOC[C@@H]1C[C@@H]2c3cc(OC)c(OC)cc3CCN2C[C@H]1CC(C)C` [Compound 9-5, (2R,3S,11bR)-9,10-dimethoxy-2-[(methoxymethoxy)methyl]-3-(2-methylpropyl)-1H,2H,3H,4H,6H,7H,11bH-pyrido[2,1-a]isoquinoline], under 10 nM.
The molecule `CCOC[C@@H]1C[C@@H]2c3cc(OC)c(OC)cc3CCN2C[C@H]1CC(C)C` [Compound 9-8, (2R,3S,11bR)-2-(ethoxymethyl)-9,10-dimethoxy-3-(2-methylpropyl)-1H,2H,3H,4H,6H,7H,11bH-pyrido[2,1-a]isoquinoline] yielded a Ki of under 10 nM.
The same measure, in the same setting: as for `COc1cc2c(cc1OC)[C@H]1C[C@@H](COCCC3CCNCC3)[C@H](CC(C)C)CN1CC2` [Compound 10-1, 4-(2-{[(2R,3S,11bR)-9,10-dimethoxy-3-(2-methylpropyl)-1H,2H,3H,4H,6H,7H,11bH-pyrido[2,1-a]isoquinolin-2-yl]methoxy}ethyl)piperidine], the figure is under 10 nM; as for `COc1cc2c(cc1OC)[C@H]1C[C@@H](COC[C@@H]3CCNC3)[C@H](CC(C)C)CN1CC2` [Compound 10-2, (3R)-3-({[(2R,3S,11bR)-9,10-dimethoxy-3-(2-methylpropyl)-1H,2H,3H,4H,6H,7H,11bH-pyrido[2,1-a]isoquinolin-2-yl]methoxy}methyl)pyrrolidine], under 10 nM.
On the same count and under the same terms, with `CCCCCCOCC1CC2c3cc(OC)c(OC)cc3CCN2CC1CC(C)C` (stereo not shown) [Compound 10-3, 2-[(hexyloxy)methyl]-9,10-dimethoxy-3-(2-methylpropyl)-1H,2H,3H,4H,6H,7H,11bH-pyrido[2,1-a]isoquinoline] the figure was 10 to 500 nM.
On the same count and under the same terms, as for `COc1cc2c(cc1OC)[C@H]1C[C@@H](COC[C@@H]3CCCN3)[C@H](CC(C)C)CN1CC2` [Compound 10-4, (2S)-2-({[(2R,3S,11bR)-9,10-dimethoxy-3-(2-methylpropyl)-1H,2H,3H,4H,6H,7H,11bH-pyrido[2,1-a]isoquinolin-2-yl]methoxy}methyl)pyrrolidine], the figure is under 10 nM.
`COc1cc2c(cc1OC)[C@H]1C[C@@H](COCC3CCNCC3)[C@H](CC(C)C)CN1CC2` [Compound 10-5, 4-({[(2R,3S,11bR)-9,10-dimethoxy-3-(2-methylpropyl)-1H,2H,3H,4H,6H,7H,11bH-pyrido[2,1-a]isoquinolin-2-yl]methoxy}methyl)piperidine]: the Ki lay in the range of 10 to 500 nM.
The molecule `COc1cc2c(cc1OC)[C@H]1C[C@@H](COCC3CCNC3)[C@H](CC(C)C)CN1CC2` (stereo partly drawn) [Compound 10-6, 3-({[(2R,3S,11bR)-9,10-dimethoxy-3-(2-methylpropyl)-1H,2H,3H,4H,6H,7H,11bH-pyrido[2,1-a]isoquinolin-2-yl]methoxy}methyl)pyrrolidine] yielded a Ki of under 10 nM.
The molecule `COc1cc2c(cc1OC)[C@H]1C[C@@H](COC[C@H]3CCCN3)[C@H](CC(C)C)CN1CC2` [Compound 10-7, (2R)-2-({[(2R,3S,11bR)-9,10-dimethoxy-3-(2-methylpropyl)-1H,2H,3H,4H,6H,7H,11bH-pyrido[2,1-a]isoquinolin-2-yl]methoxy}methyl)pyrrolidine] came in with a Ki of under 10 nM.
